According to ChEMBL document CHEMBL1201862, “PubChem BioAssay data set” (2004):
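Dose response: 5 concentrations. Exposure: 48 h. Format: 96-well plates. Endpoint: linear interpolation; highest concentration if not reached. GI50 = concentration required for 50% inhibition of growth.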 The source made the active and inactive calls. No stated cut-off is given here; in the data, active = GI50 up to about 1.1 µM and inactive = higher.

Columns and labels:
Experiment in all cases: growth of human tumour cells (NCI), 48 h
EKVX = test system: EKVX
UACC-257 = test system: UACC-257
SN12C = test system: SN12C
TK-10 = test system: TK-10
M14 = test system: M14
KM12 = test system: KM12
MOLT-4 = test system: MOLT-4
HCT-15 = test system: HCT-15
HOP-62 = test system: HOP-62
A549 = test system: A549
COLO 205 = test system: COLO 205
RPMI-8226 = test system: RPMI-8226
RXF 393 = test system: RXF 393
OVCAR-3 = test system: OVCAR-3
DMS-273 = test system: DMS-273
NCI-H460 = test system: NCI-H460
Malme-3M = test system: Malme-3M
NCI/ADR-RES = test system: NCI/ADR-RES
PC-3 = test system: PC-3
DU-145 = test system: DU-145

Structure (SMILES) | GI50 (EKVX) | GI50 (UACC-257) | GI50 (SN12C) | GI50 (TK-10) | GI50 (M14) | GI50 (KM12) | GI50 (MOLT-4) | GI50 (HCT-15) [µM] | GI50 (HOP-62) | GI50 (A549) | GI50 (COLO 205) | GI50 (RPMI-8226) | GI50 (RXF 393) | GI50 (OVCAR-3) | GI50 (DMS-273) | GI50 (NCI-H460) | GI50 (Malme-3M) | GI50 (NCI/ADR-RES) | GI50 (PC-3) | GI50 (DU-145)
Cc1nn(-c2ccccc2)c2nc(N3CCOCC3)nnc12 | > 100 µM (inactive) | > 100 µM (inactive) | > 100 µM (inactive) | > 100 µM (inactive) | 97.1 µM (inactive) | > 100 µM (inactive) | 40.6 µM (inactive) | 65 | > 100 µM (inactive) | 94.4 µM (inactive) | > 100 µM (inactive) | 46.6 µM (inactive) | > 100 µM (inactive) | 88.7 µM (inactive) | > 100 µM (inactive) | > 100 µM (inactive) | 64 µM (inactive) |  |  | 
COC(=O)C1=CON2C3CC4CC(C3)CC(C4)C12C (stereo not drawn) | > 100 µM (inactive) | > 100 µM (inactive) | > 100 µM (inactive) | > 100 µM (inactive) | > 100 µM (inactive) | > 100 µM (inactive) | > 100 µM (inactive) | > 100 | > 100 µM (inactive) | > 100 µM (inactive) | > 100 µM (inactive) | > 100 µM (inactive) | > 100 µM (inactive) | > 100 µM (inactive) |  | > 100 µM (inactive) | > 100 µM (inactive) | > 100 µM (inactive) | > 100 µM (inactive) | > 100 µM (inactive)
CC(=O)OCC(OC(C)=O)C(OC(C)=O)C(OC(C)=O)C(=O)CNn1c(-c2ccc(C)cc2)nc2ccccc2c1=O (stereo not drawn) | > 100 µM (inactive) | > 100 µM (inactive) | 76 µM (inactive) |  | > 100 µM (inactive) | > 100 µM (inactive) | 82.8 µM (inactive) | > 100 | > 100 µM (inactive) | > 100 µM (inactive) | > 100 µM (inactive) | 39.4 µM (inactive) | > 100 µM (inactive) | > 100 µM (inactive) | > 100 µM (inactive) | > 100 µM (inactive) | > 100 µM (inactive) |  |  | 
Cn1c(N/N=C/c2ccccc2)nc(-c2ccc3c(c2)OCO3)c(C#N)c1=O | 70.6 µM (inactive) | 77.1 µM (inactive) | 65.2 µM (inactive) | 69.7 µM (inactive) | > 100 µM (inactive) | 88.1 µM (inactive) | 48.4 µM (inactive) | 36.5 | > 100 µM (inactive) | 45.4 µM (inactive) | 58.3 µM (inactive) | 47.1 µM (inactive) | 81.8 µM (inactive) | 27.5 µM (inactive) |  | 87.7 µM (inactive) | > 100 µM (inactive) | > 100 µM (inactive) | 56.8 µM (inactive) | 84.5 µM (inactive)
Cc1cc(O)c(C(c2ccncc2)c2c(O)cc(C)[nH]c2=O)c(=O)[nH]1 | > 100 µM (inactive) | > 100 µM (inactive) | > 100 µM (inactive) | > 100 µM (inactive) | > 100 µM (inactive) | > 100 µM (inactive) | > 100 µM (inactive) | > 100 | > 100 µM (inactive) | > 100 µM (inactive) | > 100 µM (inactive) | > 100 µM (inactive) | > 100 µM (inactive) | > 100 µM (inactive) |  | > 100 µM (inactive) | > 100 µM (inactive) | > 100 µM (inactive) | > 100 µM (inactive) | > 100 µM (inactive)
Nc1nc(=O)c(/N=N/c2ccccc2)c(N)[nH]1 |  | 56.9 µM (inactive) | 52.7 µM (inactive) | 59.8 µM (inactive) | 28 µM (inactive) | 56.2 µM (inactive) | > 100 µM (inactive) | 30.5 | 30.8 µM (inactive) | 29.9 µM (inactive) | 65 µM (inactive) | > 100 µM (inactive) |  | 71.8 µM (inactive) | 37.2 µM (inactive) | 24.6 µM (inactive) | 15.3 µM (inactive) |  |  | 
O=C(N/N=C(COc1ccccc1)\N=C\c1cccnc1)c1ccncc1 | > 100 µM (inactive) | > 100 µM (inactive) | > 100 µM (inactive) | > 100 µM (inactive) | > 100 µM (inactive) | > 100 µM (inactive) | > 100 µM (inactive) | > 100 | 59.6 µM (inactive) | > 100 µM (inactive) | > 100 µM (inactive) | > 100 µM (inactive) | > 100 µM (inactive) | > 100 µM (inactive) |  | > 100 µM (inactive) | > 100 µM (inactive) | > 100 µM (inactive) | > 100 µM (inactive) | > 100 µM (inactive)
COc1cc(CC(C)C(C)Cc2ccc(O)c(OC)c2)ccc1O (stereo not drawn) [DIHYDROGUAIARETIC ACID] | 15.5 µM (inactive) | 15.8 µM (inactive) | 15.4 µM (inactive) | 34 µM (inactive) | 14.1 µM (inactive) | 14.7 µM (inactive) | 9.29 µM (inactive) | 20 | 23.9 µM (inactive) | 14.5 µM (inactive) | > 50 µM (inactive) | 7.93 µM (inactive) | 13.1 µM (inactive) | 16 µM (inactive) |  | 14.5 µM (inactive) | 13.1 µM (inactive) | 16.2 µM (inactive) | 10.8 µM (inactive) | 22.3 µM (inactive)
